BindingDB's records for patent US20240351997 (Shanghai Qilu Pharmaceutical Research and Development Centre, 2024)

Target: T1, Protein mono-ADP-ribosyltransferase TIPARP (Homo sapiens, UniProt Q7Z3E1)
T1 sequence (Q7Z3E1 whole entry): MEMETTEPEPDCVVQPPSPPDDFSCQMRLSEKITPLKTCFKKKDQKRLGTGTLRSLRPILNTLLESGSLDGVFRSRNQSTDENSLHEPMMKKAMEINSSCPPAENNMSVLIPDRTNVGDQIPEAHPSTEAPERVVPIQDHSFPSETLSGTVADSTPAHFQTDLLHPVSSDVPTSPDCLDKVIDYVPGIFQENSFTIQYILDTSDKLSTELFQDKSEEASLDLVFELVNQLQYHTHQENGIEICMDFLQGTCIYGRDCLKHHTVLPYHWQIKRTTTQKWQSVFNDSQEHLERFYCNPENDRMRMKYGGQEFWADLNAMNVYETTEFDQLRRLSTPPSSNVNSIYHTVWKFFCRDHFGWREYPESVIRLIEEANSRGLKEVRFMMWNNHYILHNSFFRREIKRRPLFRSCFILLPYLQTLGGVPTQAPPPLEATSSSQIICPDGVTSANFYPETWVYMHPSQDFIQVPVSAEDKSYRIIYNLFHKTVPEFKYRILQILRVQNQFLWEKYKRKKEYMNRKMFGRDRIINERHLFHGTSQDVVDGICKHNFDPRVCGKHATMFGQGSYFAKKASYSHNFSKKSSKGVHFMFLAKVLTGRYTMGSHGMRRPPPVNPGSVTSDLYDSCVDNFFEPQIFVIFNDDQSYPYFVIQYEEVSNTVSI
Assay: In Vitro Enzymology Experiment of PARP2, 3, 5A, 5B, 7, 12, and 15
Description: 1. Preparation of 384-well histone-coated plate: 25 μL of histone solution was added to each well, and the plate was incubated overnight at 4° C.2. Preparation of PBST buffer, blocking buffer, and assay buffer3. The 384-well histone-coated plate was washed three times with PBST buffer. The plate was blocked by 50 μL of blocking buffer for 1 hour at room temperature. The plate was then washed three times with PBST buffer.4. Compound preparation:2000× compound was prepared in a 96-well source plate. 50 nL of the compound was transferred from the source plate to a 96-well intermediate plate, and 39.95 μL of assay buffer was added to each well. The plate was shaken well and centrifuged at 1000 rpm for 1 minute.5 μL of compound DMSO solution was transferred to each well.5. […] Detection:25 μL of Stre-HRP was added.The plate was incubated at room temperature for 1 hour and washed three times with PBS buffer.25 μL of QuantaRed Enhancer mix was added. The plate was incubated for 10 minutes.2.5 μL of QuantaRed Stop Solution was added to terminate the peroxidase reaction, and the plate was shaken for 10 to 30 seconds.7. […] Data processingUsing equation (1) to fit the data in Excel to obtain inhibition valuesinh%=(Max-Signal)/(Max-Min)*100Equation(1)Using equation (2) to fit the data in XL-Fit to obtain IC50 valuesY=Bottom+(Top-Bottom)/(1+(IC5 0/X)*HillSlopeEquation(2)Y is the percentage of inhibition, and X is the compound concentration.

Compound | IC50 [nM]
Nc1cc(C(F)(F)F)cnc1N1CCN(C(=O)OCCc2c[nH]c(=O)c(C(F)(F)F)c2)CC1 [US20240351997, Example 131] | 1.3
Cc1cnc(N2C[C@@H](C)N(C(=O)OCCc3c[nH]c(=O)c(C(F)(F)F)c3)C[C@H]2C)nc1 [US20240351997, Example 167] | 1.5
C[C@@H]1CN(c2ncc(C3CC3)cn2)[C@H](C)CN1C(=O)OCCc1c[nH]c(=O)c(C(F)(F)F)c1 [US20240351997, Example 180] | 1

These reach a lower IC50. Values come first.

IC50 [nM] | Compound
0.85 | O=C(Oc1cccc(-c2c[nH]c(=O)c(C(F)(F)F)c2)c1)N1CCN(c2ncc(C(F)(F)F)cn2)[C@@H](CO)C1 [US20240351997, Example 141]
0.74 | O=C(Oc1cccc(-c2c[nH]c(=O)c(C(F)(F)F)c2)c1)N1CCN(c2ncc(C(F)(F)F)cn2)[C@H](CO)C1 [US20240351997, Example 142]
0.61 | O=C(Oc1cccc(-c2c[nH]c(=O)c(C(F)(F)F)c2)c1)N1CCN(c2ncc(C(F)(F)F)cn2)[C@@H](CO)C1 [US20240351997, Example 143]
